According to PubChem BioAssay AID248 (DTP/NCI, 2004):
Where “and” joins values, the source holds several entries; their conditions need not be identical. Equal entries are not always repeated. Toxic doses and inconclusive results are not listed. No stated cut-off is given here; in the data, active means T/C of 150% or more; inactive means T/C below 125%.

Test system: L1210 leukemia ip in BDF1 mice, survival T/C
Assay: NCI In Vivo Anticancer Drug Screen. Data for tumor model L1210 Leukemia (intraperitoneal) in B6D2F1 (BDF1) mice
Conditions: endpoint: mean survival time, higher = longer survival
Method in brief: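 In this screen, tumor-bearing mice given compound are compared to those given vehicle, and their survival values are reported as a treated-to-control quotient.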

[1] = dose: 5.0 mg/kg/injection, schedule: Q01DX001 (ip), vehicle: saline
[2] = dose: 10.0 mg/kg/injection, schedule: Q01DX001 (ip), vehicle: saline
[3] = dose: 20.0 mg/kg/injection, schedule: Q01DX001 (ip), vehicle: saline
[4] = dose: 100.0 mg/kg/injection, schedule: Q01DX009 (ip), vehicle: saline
[5] = dose: 200.0 mg/kg/injection, schedule: Q01DX009 (ip), vehicle: saline
[6] = dose: 400.0 mg/kg/injection, schedule: Q01DX009 (ip), vehicle: saline
[7] = dose: 100.0 mg/kg/injection, schedule: Q01DX009 (ip), vehicle: Klucel (hydroxypropylcellulose) (HPC)
[8] = dose: 100.0 mg/kg/injection, schedule: Q04DX003 (ip), vehicle: Klucel (hydroxypropylcellulose) (HPC)
[9] = dose: 200.0 mg/kg/injection, schedule: Q01DX009 (ip), vehicle: Klucel (hydroxypropylcellulose) (HPC)
[10] = dose: 200.0 mg/kg/injection, schedule: Q04DX003 (ip), vehicle: Klucel (hydroxypropylcellulose) (HPC)
[11] = dose: 400.0 mg/kg/injection, schedule: Q01DX009 (ip), vehicle: Klucel (hydroxypropylcellulose) (HPC)
[12] = dose: 400.0 mg/kg/injection, schedule: Q04DX003 (ip), vehicle: Klucel (hydroxypropylcellulose) (HPC)
[13] = dose: 100.0 mg/kg/injection, schedule: Q01DX001 (ip), vehicle: Klucel (hydroxypropylcellulose) (HPC)
[14] = dose: 100.0 mg/kg/injection, schedule: Q01DX009 (ip), vehicle: saline with Tween-80
[15] = dose: 200.0 mg/kg/injection, schedule: Q01DX009 (ip), vehicle: saline with Tween-80
[16] = dose: 400.0 mg/kg/injection, schedule: Q01DX009 (ip), vehicle: saline with Tween-80
[17] = dose: 100.0 mg/kg/injection, schedule: Q01DX001 (ip), vehicle: saline
[18] = dose: 200.0 mg/kg/injection, schedule: Q01DX001 (ip), vehicle: saline
[19] = dose: 400.0 mg/kg/injection, schedule: Q01DX001 (ip), vehicle: saline
[20] = dose: 100.0 mg/kg/injection, schedule: Q04DX003 (ip), vehicle: saline
[21] = dose: 200.0 mg/kg/injection, schedule: Q04DX003 (ip), vehicle: saline
[22] = dose: 100.0 mg/kg/injection, schedule: Q04DX002 (ip), vehicle: saline
[23] = dose: 200.0 mg/kg/injection, schedule: Q04DX002 (ip), vehicle: saline
[24] = dose: 400.0 mg/kg/injection, schedule: Q04DX002 (ip), vehicle: saline
[25] = dose: 25.0 mg/kg/injection, schedule: Q01DX009 (ip), vehicle: Klucel (hydroxypropylcellulose) (HPC)
[26] = dose: 50.0 mg/kg/injection, schedule: Q01DX009 (ip), vehicle: Klucel (hydroxypropylcellulose) (HPC)

Measured: T/C

N/C=C(/NC(=O)c1ccccc1C(N)=O)C(=O)O
inactive: dose: 75.0 mg/kg/injection, schedule: Q01DX001 (ip), vehicle: saline 100 % of control | dose: 150.0 mg/kg/injection, schedule: Q01DX001 (ip), vehicle: saline 100 % of control | dose: 300.0 mg/kg/injection, schedule: Q01DX001 (ip), vehicle: saline 91 % of control

Cc1cccc[c]1[Sb](=[O])([OH])[OH]
inactive: [1] 94 % of control | [2] 97 % of control | [3] 97 % of control | dose: 40.0 mg/kg/injection, schedule: Q01DX001 (ip), vehicle: saline 103 % of control | dose: 80.0 mg/kg/injection, schedule: Q01DX001 (ip), vehicle: saline 105 % of control

CC(NC(=O)Cc1ccccc1)C(=O)NN (stereo not given)
inactive: [4] 100 % of control | [5] 102 % of control | [6] 91 % of control

O=C(O)CCc1cc([N+](=O)[O-])c(O)c([N+](=O)[O-])c1
inactive: dose: 100.0 mg/kg/injection, schedule: Q04DX003 (ip), vehicle: saline with Tween-80 96 % of control | dose: 200.0 mg/kg/injection, schedule: Q04DX003 (ip), vehicle: saline with Tween-80 101 % of control | dose: 400.0 mg/kg/injection, schedule: Q04DX003 (ip), vehicle: saline with Tween-80 99 % of control

COc1ccc(/C=C(C(=O)O)/C(=C/c2ccc(OC)c(OC)c2)C(=O)O)cc1OC
inactive: [7] 96 % of control | [8] 95 % of control | [9] 105 % of control | [10] 96 % of control | [11] 91 % of control | [12] 98 % of control

O=S(=O)(/N=c1/ccc(NS(=O)(=O)c2ccccc2)cn1O)c1ccccc1
inactive: dose: 50.0 mg/kg/injection, schedule: Q01DX001 (ip), vehicle: Klucel (hydroxypropylcellulose) (HPC) 96 % of control | [13] 102 % of control | dose: 200.0 mg/kg/injection, schedule: Q01DX001 (ip), vehicle: Klucel (hydroxypropylcellulose) (HPC) 98 % of control

ON=C(c1ccc(Cl)cc1)c1ccc(Cl)cc1
inactive: [14] 95 % of control | [15] 93 % of control | [16] 93 % of control

CCOc1ccc(NC(=O)c2cccc(C(=O)Nc3ccc(OCC)cc3)c2)cc1
inactive: [7] 104 % of control | [8] 91 % of control | [9] 101 % of control | [10] 98 % of control | [11] 95 % of control | [12] 93 % of control

OC1C2CCN(CC2)C1CN1CCOCC1 (stereo not given)
inactive: [17] 107 % of control | [4] 94 % of control | [18] 108 % of control | [5] 91 % of control | [19] 97 % of control | [6] 91 % of control

O=[N+]([O-])c1ccc(-c2ccccc2)cc1
inactive: [17] 102 % of control | [18] 105 % of control | [19] 105 % of control

Nc1c(Oc2cccc(C[N+]3(CCOS(=O)(=O)O)CC3)c2)cc(O)c2c1C(=O)c1ccccc1C2=O
inactive: dose: 100.0 mg/kg/injection, schedule: Q01DX001 (ip), vehicle: carboxymethylcellulose (CMC) 96 % of control | dose: 200.0 mg/kg/injection, schedule: Q01DX001 (ip), vehicle: carboxymethylcellulose (CMC) 93 % of control

CSCC(C)O (stereo not given)
inactive: [20] 109 % of control | [21] 115 % of control | dose: 400.0 mg/kg/injection, schedule: Q04DX003 (ip), vehicle: saline 109 % of control

O=C(O)/C=C/c1cnc[nH]1
inactive: [22] 93 % of control | [23] 104 % of control | [24] 108 % of control

O=C(CC(O)(C(F)(F)F)C(F)(F)F)c1c2ccccc2cc2ccccc12
inactive: [14] 98 % of control | [15] 109 % of control | [16] 98 % of control

O=C(Oc1ccc([N+](=O)[O-])cc1)c1ccc(CBr)cc1
inactive: dose: 50.0 mg/kg/injection, schedule: Q01DX009 (ip), vehicle: saline 104 % of control | [4] 102 % of control | [20] 94 % of control | [5] 94 % of control | [21] 94 % of control

C[N+](C)(C)C1(c2ccc(F)cc2)CCCCC1
inactive: [1] 111 % of control | [2] 105 % of control | [3] 111 % of control

CC(=O)Nc1ccc(S(=O)(=O)NC(C)=O)cc1
inactive: dose: 100.0 mg/kg/injection, schedule: Q01DX001 (ip), vehicle: other 94 % of control | [14] 108 % of control | dose: 200.0 mg/kg/injection, schedule: Q01DX001 (ip), vehicle: other 96 % of control | dose: 400.0 mg/kg/injection, schedule: Q01DX001 (ip), vehicle: other 107 % of control | [16] 97 % of control

NC(=O)C(c1ccccc1)N1CCCCC1 (stereo not given)
inactive: [25] 87 % of control | dose: 25.0 mg/kg/injection, schedule: Q04DX003 (ip), vehicle: Klucel (hydroxypropylcellulose) (HPC) 96 % of control | [26] 96 % of control | dose: 50.0 mg/kg/injection, schedule: Q04DX003 (ip), vehicle: Klucel (hydroxypropylcellulose) (HPC) 100 % of control | [7] 97 % of control | [8] 92 % of control and 90 % of control

CCN(CC)c1ccc(Cc2ccc3c(c2O)C(=O)c2c(O)cccc2C3=O)cc1
inactive: [4] 94 % of control | [22] 101 % of control | [5] 96 % of control | [23] 92 % of control | [6] 97 % of control | [24] 89 % of control

NNC(=O)c1ccc(Cl)cc1Nc1ccc(Cl)cc1
inactive: [25] 93 % of control | [26] 95 % of control | [13] 97 % of control | [7] 91 % of control

Cc1cccc(NC(=O)Nc2cccc(C(F)(F)F)c2)n1
inactive: dose: 100.0 mg/kg/injection, schedule: Q01DX009 (ip), vehicle: gum acacia 92 % of control | dose: 200.0 mg/kg/injection, schedule: Q01DX009 (ip), vehicle: gum acacia 87 % of control | dose: 400.0 mg/kg/injection, schedule: Q01DX009 (ip), vehicle: gum acacia 89 % of control

CC1CCCCN1C(=O)Nc1ccc(Cl)cc1Cl (stereo not given)
inactive: dose: 50.0 mg/kg/injection, schedule: Q01DX009 (ip), vehicle: saline with Tween-80 91 % of control | [14] 102 % of control | [15] 98 % of control

NC(CCl)=NC1CCCCC1
inactive: dose: 25.0 mg/kg/injection, schedule: Q04DX002 (ip), vehicle: saline 106 % of control | dose: 50.0 mg/kg/injection, schedule: Q04DX002 (ip), vehicle: saline 100 % of control | [22] 110 % of control and 120 % of control
